Assay results from patent US9458430B2, “Differentiation of pluripotent stem cells” (Janssen Biotech, Inc., priority 2010, dated 2016).

How the values were obtained:
Assay type in all cases: cell-based
[1] = system: human embryonic stem cells line H1; assay: NGN3 immunostaining at stage IV of the Example 1 protocol; conditions: 100 nM of the CYP26A inhibitor vs control
[2] = system: human embryonic stem cells line H1; assay: Real-time PCR of pancreatic related genes in H1 cells differentiated by the Example 1 protocol
Procedure: FIGS. 1A to 1H show real-time PCR data obtained from samples obtained from cells at stages III-IV, of the protocol outlined in Example 1, for PAX4 (FIG. 1A), NGN3 (FIG. 1B), PDX1 (FIG. 1C), NEUROD (FIG. 1D), NKX6.1 (FIG. 1E), CDX2 (FIG. 1F), and Albumin (FIG. 1G). The y-axis is fold expression over undifferentiated H1 cells.
Cells of the human embryonic stem cells line H1 (p40-p50) were cultured on MATRIGEL®-coated dishes (1:30 dilution) (BD Biosciences; Cat #356231) in MEF-CM (mouse embryonic fibroblast conditioned medium) as colonies and differentiated into pancreatic endocrine precursor cells as follows: • a. Stage I (Definitive Endoderm): Human embryonic stem cells were cultured in RPMI medium supplemented with 2% fatty acid-free BSA (Catalog#68700, Proliant, IA), and 100 ng/ml activin A (R&D Systems, MN) plus 20 ng/ml WNT-3a (Catalog#1324-WN-002, R&D Systems, MN) plus 8 ng/ml of bFGF (Catalog#100-18B, PeproTech, NJ), for one day, followed by treatment with RPMI medium supplemented with 2% BSA and 100 ng/ml activin A plus 8 ng/ml of bFGF for an additional two days, then • b. Stage II (Primitive gut tube): Cells were treated with RPMI+2% fatty acid-free BSA and 50 ng/ml FGF7, for two days, then • c. Stage III (Posterior foregut): Cells were treated with DMEM/High-Glucose supplemented with 1:200 dilution of ITS-X (Invitrogen, CA) and 0.1% BSA (Lipid Rich) (Invitrogen, Ca No. 11021-045), 50 ng/ml FGF7, 0.25 μM SANT-1, 2 μM Retinoic acid (RA) (Sigma, MO), 100 ng/ml of Noggin (R & D Systems, MN), 2.5 μM 4-[4-(4-Fluorophenyl)-1-(3-phenylpropyl)-5-pyridin-4-yl-1H-imidazol-2-yl]but-3-yn-1-ol (a P38 inhibitor disclosed in U.S. Pat. No. 6,521,655), and activin A at 20 ng/ml for five days, then • d. Stage IV (Pancreatic endocrine precursor): Cells were treated with DMEM/High-Glucose supplemented with 1:200 dilution of ITS-X (Invitrogen, CA) and 0.1% BSA (Invitrogen, Ca), 100 ng/ml Noggin, 1 μM ALK5 inhibitor (SD-208, disclosed in Molecular Pharmacology 2007 72:152-161), 500 nM TPB (α-Amyloid Precursor Protein Modulator) (Catalogue #565740, EMD, CA), and 10-100 nM of the CYP26A inhibitor N-{4-[2-Ethyl-1-(1H-1,2,4-triazol-1-yl)butyl]phenyl}-1,3-benzothiazol-2-amine, and 10-100 nM Vitamin A (Catalogue#R7632, Sigma, MO) for four days, or
In some of the cultures, the Stage IV was extended to six days. mRNA was isolated at stages III and IV for real-time PCR analysis of pancreatic related genes.

[3] = system: human embryonic stem cells line H1; assay: Real-time PCR of pancreatic related genes in H1 cells differentiated by the Example 2 protocol
Procedure: FIGS. 2A to 2E show real-time PCR data obtained from samples obtained from cells at stages III-IV, of the protocol outlined in Example 2, for NGN3 (FIG. 2A), NEUROD (FIG. 2B), CDX2 (FIG. 2C), NKX6.1 (FIG. 2D) and, PDX1 (FIG. 2E). The y-axis is fold expression over undifferentiated H1 cells.
Cells of the human embryonic stem cells line H1 (p40-p52) were seeded as single cells at a density of 100000 cells/cm^2 on MATRIGEL®-coated dishes (1:30 dilution) (BD Biosciences; Cat #356231) in MEF-CM (mouse embryonic fibroblast conditioned media supplemented) with 16 ng/ml of FGF2 (Catalog#100-18B, PeproTech, NJ) and 10 μM of Y27632 (Rock inhibitor, Catalogue #Y0503, Sigma, MO). 72 hours post seeding, cultures were differentiated into definitive endoderm (DE) as follows: • a. Stage I (Definitive Endoderm): Human embryonic stem cells were treated with MCDB-131 (Catalogue#10372-019, Invitrogen, CA) medium supplemented with 2% fatty acid-free BSA (Catalog#68700, Proliant, IA), 0.0025 g/ml sodium bicarbonate (Catalogue #S3187, Sigma, MO), 1× GlutaMax™ (Catalogue #35050-079, Invitrogen, Ca) and 100 ng/ml activin A (R&D Systems, MN) plus 20 ng/ml WNT-3a (Catalog#1324-WN-002, R&D Systems, MN) for one day, followed by treatment with MCDB-131 medium supplemented with 2% BSA, sodium bicarbonate, Glutamax, and 100 ng/ml activin A for an additional three days, then • b. Stage II (Primitive gut tube): Cells were treated with MCDB-131+2% fatty acid-free BSA and 50 ng/ml FGF7 and for three days, then • c. Stage III (Posterior foregut): Cells were treated with MCDB-131/High-Glucose (25 mM glucose) supplemented with 1:200 dilution of ITS-X (Invitrogen, CA), 1× GlutaMax™ (Catalogue #35050-079, Invitrogen, Ca), 0.0025 g/ml sodium bicarbonate (Catalogue #S3187, Sigma, MO), 0.1% BSA (Lipid Rich) (Invitrogen, Ca No. 11021-045), 50 ng/ml FGF7, 0.25 μM SANT-1, 2 μM Retinoic acid (RA) (Sigma, MO), 2.5 μM 4-[4-(4-Fluorophenyl)-1-(3-phenylpropyl)-5-pyridin-4-yl-1H-imidazol-2-yl]but-3-yn-1-ol (a p38 inhibitor, disclosed in U.S. Pat. No. 6,521,655), 100 nM LDN-193189 (BMP receptor inhibitor, Catalogue #04-0019, Stemgent, CA), 500 nM of the CYP26A inhibitor N-{4-[2-Ethyl-1-(1H-1,2,4-triazol-1-yl)butyl]phenyl}-1,3-benzothiazol-2-amine, and activin A at 20 ng/ml for four days, then • d. Stage IV (Pancreatic endocrine precursor): Cells were treated MCDB-131/High-Glucose (25 mM glucose) supplemented with 1:200 dilution of ITS-X (Invitrogen, CA) and 0.1% BSA (Invitrogen, Ca), 1× GlutaMax™ (Catalogue #35050-079, Invitrogen, Ca), 0.0025 g/ml sodium bicarbonate (Catalogue #S3187, Sigma, MO), 1 μM ALK5 inhibitor (SD-208, disclosed in Molecular Pharmacology 2007 72:152-161), 500 nM PDBu (PKC activator) (Catalogue #P1269, Sigma, MO), 100 nM LDN-193189 (BMP receptor inhibitor, Catalogue #04-0019, Stemgent, CA), 0.25 μM SANT-1 (#S4572, Sigma, MO), and 500 nM of the CYP26A inhibitor N-{4-[2-Ethyl-1-(1H-1,2,4-triazol-1-yl)butyl]phenyl}-1,3-benzothiazol-2-amine for seven days, or • e. Stage IV (Pancreatic endocrine precursor): Cells were treated MCDB-131/High-Glucose (25 mM glucose) supplemented with 1:200 dilution of ITS-X (Invitrogen, CA) and 0.1% BSA (Invitrogen, Ca), 1× GlutaMax™ (Catalogue #35050-079, Invitrogen, Ca), 0.0025 g/ml sodium bicarbonate (Catalogue #S3187, Sigma, MO), 1 μM ALK5 inhibitor (SD-208, disclosed in Molecular Pharmacology 2007 72:152-161), 500 nM PDBu (PKC activator) (Catalogue #P1269, Sigma, MO), 100 nM LDN-193189 (BMP receptor inhibitor, Catalogue #04-0019, Stemgent, CA), 0.25 μM SANT-1 (#S4572, Sigma, MO) for seven days.
mRNA was isolated at stages III and IV for real-time PCR analysis of pancreatic related genes. Similar to the results observed in Example 1 above, addition of CYP26A inhibitor to stage IV enhanced expression of pancreatic endocrine precursor markers, such as NGN3 and NeuroD. (See FIG. 2A to 2E).

[4] = added at stage IV, 10-100 nM, mRNA, real-time PCR, dose dependent
[5] = added at stage IV, mRNA, real-time PCR
[6] = 500 nM added to both stages III and IV
[7] = 500 nM added to stage III in the presence of retinoic acid

## CCC(CC)[C@H](c1ccc(Nc2nc3ccccc3s2)cc1)n1cncn1 (stereo in doubt) [CYP26A inhibitor, N-{4-[2-Ethyl-1-(1H-1,2,4-triazol-1-yl)butyl]phenyl}-1,3-benzothiazol-2-amine]
[1]
  expression of NGN3 by immunostaining: significant boost
[2]; [4]
  expression of endocrine precursor marker NGN3: significantly boosted
  expression of endocrine precursor marker NeuroD: significantly boosted
  expression of endocrine precursor marker Pax4: significantly boosted
  expression of pancreatic endoderm marker NKX6.1: significantly boosted
[2]; [5]
  expression of CDX2 (an intestinal marker): decreased
  expression of albumin (a liver marker): decreased
[3]; [6]
  expression of NGN3: further enhanced
  expression of NeuroD: further enhanced
[3]; [7]
  expression of CDX2: enhancing
  expression of NKX6.1: significantly down regulated
  expression of PDX-1: significantly down regulated
[3]; 500 nM added to stage IV
  expression of pancreatic endocrine precursor marker NGN3: enhanced
  expression of pancreatic endocrine precursor marker NeuroD: enhanced

## Vitamin A
[2]; vitamin A 10-100 nM added along with the CYP26A inhibitor at stage IV
  expression of pancreatic endoderm or endocrine precursor markers: did not significantly modify
